Experimental data: the supplement of paper PMC13380429

What was measured:
Details in all cases: 72 h
Caco-2 [1] = assay: cell viability relative to DMSO; higher = less toxic
Calu-3 [2] = assay: as above
HepG2 [3] = assay: as above
U2OS [4] = assay: as above
Vero E6 [5] = assay: as above
Caco-2 [6] = assay: relative viability EC50 (midpoint between 100% and the lowest measured viability); higher = less toxic
Calu-3 [7] = assay: as above
HepG2 [8] = assay: as above
U2OS [9] = assay: as above
Vero E6 [10] = assay: as above
Caco-2 [11] = assay: drug sensitivity score (DSS) for viability; higher = more toxic; extreme values may be limits of the assay
Calu-3 [12] = assay: as above
HepG2 [13] = assay: as above
U2OS [14] = assay: as above
Vero E6 [15] = assay: as above

## C[C@@H]1CC[C@@]2(NC1)O[C@H]1C[C@H]3[C@@H]4CC=C5C[C@@H](O[C@@H]6O[C@H](CO)[C@@H](O[C@@H]7O[C@@H](C)[C@H](O)[C@@H](O)[C@H]7O)[C@H](O)[C@H]6O[C@@H]6O[C@@H](C)[C@H](O)[C@@H](O)[C@H]6O)CC[C@]5(C)[C@H]4CC[C@]3(C)[C@H]1[C@@H]2C [solamargine]
Caco-2 [1]; 1 nM
  cell viability: 92%
Caco-2 [1]; 10 nM
  cell viability: 98%
Caco-2 [1]; 100 nM
  cell viability: 94.6%
Caco-2 [1]; 1000 nM
  cell viability: 96%
Caco-2 [1]; 10000 nM
  cell viability: 0.4%
Calu-3 [2]; 1 nM
  cell viability: 89%
Calu-3 [2]; 10 nM
  cell viability: 96.7%
Calu-3 [2]; 100 nM
  cell viability: 85.8%
Calu-3 [2]; 1000 nM
  cell viability: 103%
Calu-3 [2]; 10000 nM
  cell viability: 1%
HepG2 [3]; 1 nM
  cell viability: 104%
HepG2 [3]; 10 nM
  cell viability: 102%
HepG2 [3]; 100 nM
  cell viability: 102%
HepG2 [3]; 1000 nM
  cell viability: 89.8%
HepG2 [3]; 10000 nM
  cell viability: 0.2%
U2OS [4]; 1 nM
  cell viability: 95.7%
U2OS [4]; 10 nM
  cell viability: 103%
U2OS [4]; 100 nM
  cell viability: 97.5%
U2OS [4]; 1000 nM
  cell viability: 99.1%
U2OS [4]; 10000 nM
  cell viability: 0.4%
Vero E6 [5]; 1 nM
  cell viability: 101%
Vero E6 [5]; 10 nM
  cell viability: 95.2%
Vero E6 [5]; 100 nM
  cell viability: 97.4%
Vero E6 [5]; 1000 nM
  cell viability: 91.9%
Vero E6 [5]; 10000 nM
  cell viability: 0%
Caco-2 [6]
  relative viability EC50: 2.86 µM
Calu-3 [7]
  relative viability EC50: 3.34 µM
HepG2 [8]
  relative viability EC50: 2.32 µM
U2OS [9]
  relative viability EC50: 3.1 µM
Vero E6 [10]
  relative viability EC50: 2.51 µM
Caco-2 [11]
  drug sensitivity score: 6.1
Calu-3 [12]
  drug sensitivity score: 5.3
HepG2 [13]
  drug sensitivity score: 7.2
U2OS [14]
  drug sensitivity score: 5.7
Vero E6 [15]
  drug sensitivity score: 6.8

## O=C1C=CC[C@@H]2[C@H]3CCCN4CCC[C@@H](CN12)[C@@H]34 [sophocarpine]
Caco-2 [1]; 1 nM
  cell viability: 93.8%
Caco-2 [1]; 10 nM
  cell viability: 95.9%
Caco-2 [1]; 100 nM
  cell viability: 110%
Caco-2 [1]; 1000 nM
  cell viability: 97%
Caco-2 [1]; 10000 nM
  cell viability: 90.3%
Calu-3 [2]; 1 nM
  cell viability: 98.8%
Calu-3 [2]; 10 nM
  cell viability: 103%
Calu-3 [2]; 100 nM
  cell viability: 103%
Calu-3 [2]; 1000 nM
  cell viability: 98%
Calu-3 [2]; 10000 nM
  cell viability: 102%
HepG2 [3]; 1 nM
  cell viability: 92.1%
HepG2 [3]; 10 nM
  cell viability: 99.1%
HepG2 [3]; 100 nM
  cell viability: 80.5%
HepG2 [3]; 1000 nM
  cell viability: 91.2%
HepG2 [3]; 10000 nM
  cell viability: 89.4%
U2OS [4]; 1 nM
  cell viability: 97.3%
U2OS [4]; 10 nM
  cell viability: 96.4%
U2OS [4]; 100 nM
  cell viability: 100%
U2OS [4]; 1000 nM
  cell viability: 98.5%
U2OS [4]; 10000 nM
  cell viability: 106%
Vero E6 [5]; 1 nM
  cell viability: 97.8%
Vero E6 [5]; 10 nM
  cell viability: 113%
Vero E6 [5]; 100 nM
  cell viability: 106%
Vero E6 [5]; 1000 nM
  cell viability: 109%
Vero E6 [5]; 10000 nM
  cell viability: 100%
Caco-2 [6]
  relative viability EC50: > 10 µM
Calu-3 [7]
  relative viability EC50: > 10 µM
HepG2 [8]
  relative viability EC50: > 10 µM
U2OS [9]
  relative viability EC50: > 10 µM
Vero E6 [10]
  relative viability EC50: > 10 µM
Caco-2 [11]
  drug sensitivity score: 0
Calu-3 [12]
  drug sensitivity score: 0
HepG2 [13]
  drug sensitivity score: 0
U2OS [14]
  drug sensitivity score: 0
Vero E6 [15]
  drug sensitivity score: 0

## C[C@]12Cc3c[nH]nc3C[C@@H]1CC[C@@H]1[C@@H]2CC[C@@]2(C)[C@H]1CC[C@]2(C)O [stanozolol]
Caco-2 [1]; 1 nM
  cell viability: 101%
Caco-2 [1]; 10 nM
  cell viability: 95%
Caco-2 [1]; 100 nM
  cell viability: 104%
Caco-2 [1]; 1000 nM
  cell viability: 107%
Caco-2 [1]; 10000 nM
  cell viability: 91.4%
Calu-3 [2]; 1 nM
  cell viability: 95%
Calu-3 [2]; 10 nM
  cell viability: 100%
Calu-3 [2]; 100 nM
  cell viability: 103%
Calu-3 [2]; 1000 nM
  cell viability: 94.1%
Calu-3 [2]; 10000 nM
  cell viability: 107%
HepG2 [3]; 1 nM
  cell viability: 103%
HepG2 [3]; 10 nM
  cell viability: 98.5%
HepG2 [3]; 100 nM
  cell viability: 101%
HepG2 [3]; 1000 nM
  cell viability: 104%
HepG2 [3]; 10000 nM
  cell viability: 94.1%
U2OS [4]; 1 nM
  cell viability: 98.5%
U2OS [4]; 10 nM
  cell viability: 101%
U2OS [4]; 100 nM
  cell viability: 96.9%
U2OS [4]; 1000 nM
  cell viability: 96.3%
U2OS [4]; 10000 nM
  cell viability: 97.3%
Vero E6 [5]; 1 nM
  cell viability: 101%
Vero E6 [5]; 10 nM
  cell viability: 109%
Vero E6 [5]; 100 nM
  cell viability: 102%
Vero E6 [5]; 1000 nM
  cell viability: 106%
Vero E6 [5]; 10000 nM
  cell viability: 95%
Caco-2 [6]
  relative viability EC50: > 10 µM
Calu-3 [7]
  relative viability EC50: > 10 µM
HepG2 [8]
  relative viability EC50: > 10 µM
U2OS [9]
  relative viability EC50: > 10 µM
Vero E6 [10]
  relative viability EC50: > 10 µM
Caco-2 [11]
  drug sensitivity score: 0
Calu-3 [12]
  drug sensitivity score: 0
HepG2 [13]
  drug sensitivity score: 0
U2OS [14]
  drug sensitivity score: 0
Vero E6 [15]
  drug sensitivity score: 0

## O=[N+]([O-])c1ccc2c(c1)S(=O)(=O)C=C2 [stattic]
Caco-2 [1]; 1 nM
  cell viability: 97.6%
Caco-2 [1]; 10 nM
  cell viability: 90.3%
Caco-2 [1]; 100 nM
  cell viability: 99%
Caco-2 [1]; 1000 nM
  cell viability: 91.2%
Caco-2 [1]; 10000 nM
  cell viability: 16.1%
Calu-3 [2]; 1 nM
  cell viability: 107%
Calu-3 [2]; 10 nM
  cell viability: 95.2%
Calu-3 [2]; 100 nM
  cell viability: 97.7%
Calu-3 [2]; 1000 nM
  cell viability: 117%
Calu-3 [2]; 10000 nM
  cell viability: 27.3%
HepG2 [3]; 1 nM
  cell viability: 96.3%
HepG2 [3]; 10 nM
  cell viability: 95.7%
HepG2 [3]; 100 nM
  cell viability: 107%
HepG2 [3]; 1000 nM
  cell viability: 102%
HepG2 [3]; 10000 nM
  cell viability: -0.2%
U2OS [4]; 1 nM
  cell viability: 99.1%
U2OS [4]; 10 nM
  cell viability: 95.6%
U2OS [4]; 100 nM
  cell viability: 98.6%
U2OS [4]; 1000 nM
  cell viability: 94%
U2OS [4]; 10000 nM
  cell viability: 0.6%
Vero E6 [5]; 1 nM
  cell viability: 95.8%
Vero E6 [5]; 10 nM
  cell viability: 99%
Vero E6 [5]; 100 nM
  cell viability: 99.1%
Vero E6 [5]; 1000 nM
  cell viability: 95.3%
Vero E6 [5]; 10000 nM
  cell viability: 2.5%
Caco-2 [6]
  relative viability EC50: 2.3 µM
Calu-3 [7]
  relative viability EC50: 3.99 µM
HepG2 [8]
  relative viability EC50: 3.29 µM
U2OS [9]
  relative viability EC50: 2.69 µM
Vero E6 [10]
  relative viability EC50: 2.79 µM
Caco-2 [11]
  drug sensitivity score: 6.1
Calu-3 [12]
  drug sensitivity score: 3.2
HepG2 [13]
  drug sensitivity score: 5.4
U2OS [14]
  drug sensitivity score: 6.4
Vero E6 [15]
  drug sensitivity score: 6.1

## CC(C)(C)C(=O)OCOC(=O)[C@@H]1N2C(=O)C[C@H]2S(=O)(=O)C1(C)C [sulbactam-pivoxil]
Caco-2 [1]; 1 nM
  cell viability: 99.3%
Caco-2 [1]; 10 nM
  cell viability: 90.6%
Caco-2 [1]; 100 nM
  cell viability: 93.5%
Caco-2 [1]; 1000 nM
  cell viability: 98.6%
Caco-2 [1]; 10000 nM
  cell viability: 101%
Calu-3 [2]; 1 nM
  cell viability: 98.5%
Calu-3 [2]; 10 nM
  cell viability: 97.4%
Calu-3 [2]; 100 nM
  cell viability: 109%
Calu-3 [2]; 1000 nM
  cell viability: 108%
Calu-3 [2]; 10000 nM
  cell viability: 101%
HepG2 [3]; 1 nM
  cell viability: 98.2%
HepG2 [3]; 10 nM
  cell viability: 100%
HepG2 [3]; 100 nM
  cell viability: 96.2%
HepG2 [3]; 1000 nM
  cell viability: 105%
HepG2 [3]; 10000 nM
  cell viability: 103%
U2OS [4]; 1 nM
  cell viability: 95.7%
U2OS [4]; 10 nM
  cell viability: 96.6%
U2OS [4]; 100 nM
  cell viability: 94.9%
U2OS [4]; 1000 nM
  cell viability: 98.6%
U2OS [4]; 10000 nM
  cell viability: 95.3%
Vero E6 [5]; 1 nM
  cell viability: 99.3%
Vero E6 [5]; 10 nM
  cell viability: 104%
Vero E6 [5]; 100 nM
  cell viability: 100%
Vero E6 [5]; 1000 nM
  cell viability: 99.1%
Vero E6 [5]; 10000 nM
  cell viability: 99.2%
Caco-2 [6]
  relative viability EC50: > 10 µM
Calu-3 [7]
  relative viability EC50: > 10 µM
HepG2 [8]
  relative viability EC50: > 10 µM
U2OS [9]
  relative viability EC50: > 10 µM
Vero E6 [10]
  relative viability EC50: > 10 µM
Caco-2 [11]
  drug sensitivity score: 0
Calu-3 [12]
  drug sensitivity score: 0
HepG2 [13]
  drug sensitivity score: 0
U2OS [14]
  drug sensitivity score: 0
Vero E6 [15]
  drug sensitivity score: 0

## Cc1noc(NS(=O)(=O)c2ccc(N)cc2)c1C [sulfafurazole]
Caco-2 [1]; 1 nM
  cell viability: 95.7%
Caco-2 [1]; 10 nM
  cell viability: 94.2%
Caco-2 [1]; 100 nM
  cell viability: 96.6%
Caco-2 [1]; 1000 nM
  cell viability: 94%
Caco-2 [1]; 10000 nM
  cell viability: 103%
Calu-3 [2]; 1 nM
  cell viability: 96.2%
Calu-3 [2]; 10 nM
  cell viability: 92.7%
Calu-3 [2]; 100 nM
  cell viability: 105%
Calu-3 [2]; 1000 nM
  cell viability: 107%
Calu-3 [2]; 10000 nM
  cell viability: 98.1%
HepG2 [3]; 1 nM
  cell viability: 93%
HepG2 [3]; 10 nM
  cell viability: 94.3%
HepG2 [3]; 100 nM
  cell viability: 90.6%
HepG2 [3]; 1000 nM
  cell viability: 102%
HepG2 [3]; 10000 nM
  cell viability: 100%
U2OS [4]; 1 nM
  cell viability: 100%
U2OS [4]; 10 nM
  cell viability: 96.5%
U2OS [4]; 100 nM
  cell viability: 99.5%
U2OS [4]; 1000 nM
  cell viability: 96%
U2OS [4]; 10000 nM
  cell viability: 101%
Vero E6 [5]; 1 nM
  cell viability: 101%
Vero E6 [5]; 10 nM
  cell viability: 96.6%
Vero E6 [5]; 100 nM
  cell viability: 98.6%
Vero E6 [5]; 1000 nM
  cell viability: 99.2%
Vero E6 [5]; 10000 nM
  cell viability: 98.7%
Caco-2 [6]
  relative viability EC50: > 10 µM
Calu-3 [7]
  relative viability EC50: > 10 µM
HepG2 [8]
  relative viability EC50: > 10 µM
U2OS [9]
  relative viability EC50: > 10 µM
Vero E6 [10]
  relative viability EC50: > 10 µM
Caco-2 [11]
  drug sensitivity score: 0
Calu-3 [12]
  drug sensitivity score: 0
HepG2 [13]
  drug sensitivity score: 0
U2OS [14]
  drug sensitivity score: 0
Vero E6 [15]
  drug sensitivity score: 0
